Source: patent publication US20260283972A1, “A COMPOUND FOR PREPARING LIPID NANOPARTICLES ENCAPSULATING AN AGENT, NANOPARTICLE COMPOSITION COMPRISING SAID COMPOUND AND RELATED METHODS THEREOF” (AGENCY FOR SCIENCE, TECHNOLOGY AND RESEARCH, priority 2023, published 2026)
“Also recorded” adds a separate entry of the source.

Experiments:
Type in all cases: cell-based
SH-SY5Y cells = test: In vitro neurotoxicity, cell viability (AlamarBlue)
Description: HEK293 cells were grown in Dulbecco's […] (DMEM) supplemented with 10% FBS and 5% penicillin/streptomycin (Corning). SY-SY5Y cells were grown with a mixture of DMEM/Ham's F-12 with 2 mM L-glutamine (50:50 v/v) supplemented with 10% FBS and 5% penicillin/streptomycin. All cultures were grown in 37° C. incubators supplemented with 5% CO2 and were cultured according to suppliers' instructions. For all screening, cells were plated in 96-well plates at 10,000 cells per well in 100 μL of the appropriate media outlined above for the different cells. The formulated LNPs containing polymyxin B and free polymyxin B were then added to the wells at the desired polymyxin B concentration (e.g., 300, 150, 75, 37.5, 18.8, 9.4 μg mL^−1). The polymyxin B concentration of formulated LNPs was determined using the calibration plot of polymyxin B standards.

[1] = system: Escherichia coli (ATCC No. 25922); test: Antibacterial activity in vitro, broth microdilution MIC and MBC; settings: for MIC E. coli: 24 h at 37° C.
Description: (§1) The MICs (minimum inhibitory concentrations) of the formulated LNPs containing polymyxin B and free polymyxin B against Gram-negative bacteria were determined using a broth microdilution method. Briefly, the bacteria were incubated overnight in MHB, and the bacteria suspension was diluted with MHB to achieve a concentration of […] (CFU)/mL (O.D. 600=0.100). This was followed by a 1000-fold dilution in MHB. The bacterial suspension was then seeded into a 96-well plate (80 μL per well) and mixed with 20 μL of MHB containing different polymyxin B-loaded LNPs or free polymyxin B concentrations. The 96-well plate was incubated for 24 h at 37° C. (bacteria). […] The MIC experiments were performed with four independent replicates. The MBCs (minimum bactericidal concentrations) were evaluated at the end of the MIC experiment.
(§2) The microbial suspension was then spread on LB agar plates, and the plates were incubated at 37° C. for 24 h to determine CFU on each agar plate. The experiments were performed in replicates of five. The MBC experiment was conducted with three independent replicates.

[2] = system: Pseudomonas aeruginosa (ATCC No. 9027); test: as above; settings: for MIC P. aeruginosa: 24 h at 37° C.
Description: as §1, §2

[3] = Table 6, experiment with 2nd formulation
[4] = Table 7, experiment with 1st formulation

Polymyxin B [Polymyxin B (PB)]
viability of SH-SY5Y cells (SH-SY5Y cells; 300 μg mL^−1 of polymyxin B, 24 h incubation): ~ 76%
neurotoxicity / cell toxicity against SH-SY5Y (SH-SY5Y cells; high concentration, 300 μg mL^−1, listed as free polymyxin B): relatively pronounced cell toxicity; also recorded: Pronounced neurotoxicity was observed
MBC E. coli [1, 3]: 5.0 µg/mL
MIC E. coli [1, 3]: 1.25 µg/mL
MBC E. coli [1, 4]: 5.0 µg/mL
MIC E. coli [1, 4]: 5.0 µg/mL
MBC P. aeruginosa [2, 3]: 2.50 µg/mL
MIC P. aeruginosa [2, 3]: 1.25 µg/mL
MBC P. aeruginosa [2, 4]: 5.0 µg/mL
MIC P. aeruginosa [2, 4]: 5.0 µg/mL
